Assay results reported in patent US11690828B2, “Treatment of CNS diseases with sGC stimulators” (Cyclerion Therapeutics, Inc., priority 2016, dated 2023).

Columns and labels:
[1] = tested on: sGC; assay: cGMP neuronal cell-based assay; conditions: rat primary hippocampal neurons; 30 μM DETA-NO; 50% of high control (10 μM Compound Y); read-out: sGC-neuron Abs EC50
Method: Rat primary neurons were isolated from fetuses of 18-day pregnant Sprague-Dawley females. The fetuses were collected in Hanks' balanced salt solution (HBSS) and brains were rapidly removed. The cerebral hippocampi were isolated and mechanically fragmented. Further tissue digestion was performed with 0.25% (wt/vol) trypsin solution in HBSS without Ca2+ and Mg2+ for 15 min at 37° C. After trypsination, cells were washed and resuspended in neurobasal medium supplemented with 0.5 mM L-glutamine, 12.5 uM glutamic acid, 2% B-27 and 100 U/mL penicillin, and 100 μg/mL streptomycin. Cells were plated at a density of 4×10^4 cells/well in a poly-D-lysine coated 384-well flat clear-bottom plate (Corning Cat No 354662). Cells were incubated 6-7 days at 37° C. in a humidified chamber with 5% CO2. Media was removed and cells were washed 1× with HBSS containing Ca2+ and Mg2+, and replaced with 40 uL HBSS containing 0.5 mM IBMX, and incubated for 15 minutes at 37° C. 10 uL of a 5× stock of test compounds with diethylenetriamine NONOate (DETA-NO) was added. Final concentration of DETA-NO was 30 μM. Cells were incubated for 20 min at 37° C. Medium was removed, 50 uL of ice-cold 10% acetic acid was added, and incubated for 60 minutes at 4° C. Following centrifugation at 4° C. for 5 minutes at 1000×g to pellet cell debris, the supernatant was aspirated to a clean plate and the samples were analyzed for cGMP content. cGMP concentrations were determined from each sample using LC-MS/MS.
Data were normalized to a high control using the following equation: 100*(Sample−Low Control)/(High Control−Low Control), where the low control is the average of 15 samples treated with 1% DMSO, and the high control is the average of 15 samples treated with 10 μM of the known sGC stimulator Compound Y (depicted in Example 2). Data were fit using a 4-parameter fit (log(agonist) vs. response—variable slope) using GraphPad Prism Software v.5. n=2 for all compounds. […]

[2] = Rat cerebrospinal fluid (CSF) pharmacokinetic properties; type: in vivo; conditions: male, Sprague-Dawley; for concentration at 1 h: CSF, PO 10 mg/kg in PEG400, 1 h post-dosing, read-out: CSF Conc (nM @ 1 h); for Kp uu at 1 h: PO 10 mg/kg, unbound CSF / unbound plasma
Method: PK in rats was determined following oral dosing. For the oral (PO) experiments, a group of 6 male Sprague-Dawley rats with an indwelling catheter placed in the cisterna magna were used. The PO group was dosed with 3 or 10 mg/kg of a compound formulated as a solution in PEG400. PO doses were administered by oral gavage and delivered to the stomach using a syringe and gavage tube. Following oral dosage administration, the gavage tube was flushed with approximately 0.5 mL of water to ensure complete delivery of the full dose.
Plasma and CSF samples were collected as follows: samples of CSF and blood were collected at 1 hour and 2 hours post-dosing. CSF samples (0.05 mL) were collected through the intracisternal catheter. Blood samples (0.25 mL) were collected through retro-orbital sampling. These samples were kept on ice until processed for plasma. Blood samples were centrifuged at 3200 rpm for 5 minutes at approximately 5° C. within 1 hour of collection. Plasma was directly transferred to a 96-well plate tube (0.125 mL). Plug caps were placed on the tubes and the tubes frozen at approximately −70° C. and stored until analysis.
Plasma was collected and analyzed for the presence of compound.
The compound in question and the internal standard were extracted from plasma and CSF by precipitation. Samples were analyzed using liquid chromatography (LC) with tandem mass spectrometric detection (MS/MS) using electrospray ionization. The standard curve range was from 1 to 1000 ng/mL.
Kp,uu is defined as the concentration ratio of unbound drug in CSF to unbound drug in plasma. Unbound drug in plasma (or free plasma concentration) is calculated by multiplying the total plasma concentration by the unbound fraction as determined by plasma protein binding. The CSF concentration is then divided by the free plasma concentration to determine the Kp,uu. (See e.g., Di et al., J. Med. Chem., 56, 2-12 (2013)).

[3] = tested on: male Long Evans rats; assay: Novel Object Recognition (NOR) test, MK-801-induced memory deficit; type: in vivo, rat
[4] = tested on: rats; assay: Kaolin - gait score; type: in vivo, rat; conditions: internal reference Indomethacin 10 mg/kg p.o.
Method: Kaolin. Induction: In rats, unilateral arthritis was induced by an intra-articular injection of a 10% kaolin suspension into the knee joint of the right hind paw under gas anesthesia (3.5% isoflurane/3 L/min). Gait score: The gait score will be evaluated 3 h 30 min after kaolin administration by:
2: intermittent raising of the paw
(§1) Testing: 120 minutes after treatment. N=4/model/test. Results are expressed for each group as a percentage of activity calculated from the mean value of the vehicle-treated animals and compared to naïve animals, control paw, or cut-off value, depending on the test.

[5] = tested on: rats; assay: Carrageenan - paw pressure test; type: in vivo, rat; conditions: internal reference Indomethacin 30 mg/kg p.o.
Method: (§2) Paw Pressure Test. Static mechanical hyperalgesia is measured. This test requires the application of an increasing pressure on the hind paws between a flat surface and a blunt pointer. To evaluate the analgesic action of a compound, one hind paw of the animal was inflamed by an injection or injured by ligation, while the other hind paw was not injured or inflamed. The apparatus exerted a steadily increasing force on the hind paws. The reaction threshold was determined as the pressure (g) required to elicit paw withdrawal and/or vocalization. The animals were gently handled by the experimenter and static mechanical hyperalgesia were assessed two times for both hind paws.
Carrageenan. Induction: Three hours before assessment of the nociceptive threshold using the paw pressure test 100 μL of a 2% carrageenan suspension was injected into the plantar aspect of the right hind paw. The Paw Pressure test was then conducted as described above.
as §1

[6] = tested on: Healthy rats; assay: Healthy rats - paw pressure test; type: in vivo, rat; conditions: internal reference Morphine 4 mg/kg s.c.
Method: as §2, §1

[7] = tested on: Healthy rats; assay: Healthy rats - tail flick test; type: in vivo, rat; conditions: internal reference Morphine 4 mg/kg s.c.
Method: Tail Flick Test. A radiant heat was applied on the tail. When the rat felt discomfort, it reacted by a sudden tail movement (tail flick) which automatically stopped the stimulation and the timer for the measurement by the animal reaction time or nociceptive reaction latency (period from the beginning of the stimulation until detection of the response of the animal). A cut-off was previously fixed at 10 sec in order to prevent tissue damage.
as §1

[8] = tested on: rats; assay: Bennett model - paw pressure test; type: in vivo, rat; conditions: internal reference Morphine 3 mg/kg s.c.
Method: as §2
Bennett Model. Peripheral mononeuropathy was induced by loose ligation of the sciatic nerve in anesthetized rats (Xylazine 10 mg/kg i.p., ketamine 60 mg/kg i.p.) on D−14. Briefly, the common sciatic nerve was exposed at the level of the middle of the thigh by blunt dissection through the biceps femoris. Proximal to the sciatic trifurcation, four ligatures were loosely tied around it with about 1-mm spacing. […]
Testing: 120 minutes after treatment. […] Results are expressed for each group as a percentage of activity calculated from the mean value of the vehicle-treated animals and compared to naïve animals, control paw, or cut-off value, depending on the test.

[9] = tested on: rats; assay: Formalin test - score; type: in vivo, rat; conditions: internal reference Morphine 4 mg/kg s.c.
Method: Formalin Test. 2.5% formalin solution was injected by subplantar route into the right hind paw. Scoring of pain behavior was performed in rats for 36 minutes every 3 minutes according to the following scores:
0=normal behavior of the injected hind limb to support the body
1=slight touching of the injected paw on the floor to lightly support or not support the body
2=total withdrawal of the injected paw
3=licking, biting or shaking of the injected paw.
as §1

[10] = tested on: rats; assay: Brennan model - electronic Von Frey test; type: in vivo, rat; conditions: internal reference Morphine 4 mg/kg s.c.
Excerpt: Brennan Model. Surgery: Surgery was done under gas anesthesia (2.5% isoflurane/3 L/min). For all rats, the plantar aspect of the left hind paw was exposed and a 1 cm longitudinal incision was made using a surgical blade, through the skin and fascia of the plantar aspect of the foot, starting 0.5 cm from the proximal edge of the heel and extending toward the toes. The plantaris muscle was elevated and incised longitudinally whereas the insertions remained intact. After hemostasis with gentle pressure, the skin was stitched up with two sutures. After surgery, animals recovered in their cages.
Electronic Von Frey Test. Tactile allodynia was assessed using the electronic Von Frey test 24 h after surgery. The test requires the application of an increasing pressure onto the plantar aspect of the hind paws. The apparatus exerted a steady force on the hind paws. Reaction thresholds were determined as the pressure (g) required to elicit paw withdrawal. Each reaction threshold measurement was repeated three times for both hind paws with intervals of approximately 2 to 3 mins.
as §1

Fc1ccccc1Cc1nc(-c2nc(C(F)(F)F)n[nH]2)n2ccccc12 [Compound I-3]
EC50 [1]: ≤ 100 nM

Cc1ncc(Cc2nc(-c3nc(C(F)(F)F)n[nH]3)n3ccccc23)cn1 [Compound I-4]
concentration at 1 h [2]: 180 nM
Kp uu at 1 h [2]: 0.96

Fc1ccccc1Cc1nc(-c2nc(C(F)(F)F)n[nH]2)c2cccnn12 [Compound I-6]
concentration at 1 h [2]: 0.78 nM
Kp uu at 1 h [2]: < 0.01

COc1ccc2c3c1O[C@H]1C[C@@H](O)C=C[C@@]31CCN(C)C2 [Galantamine, reference compound]
Recognition Index, Mean (0 to 3 minute time bin) ([3]; Galantamine 1 mg/kg IP + MK-801 0.1 mg/kg IP): 73.33%

COc1ccc2c(c1)c(CC(=O)O)c(C)n2C(=O)c1ccc(Cl)cc1 [Indomethacin, reference compound]
% of activity vs. vehicle, kaolin gait score [4]: 58%
% of activity vs. vehicle, carrageenan paw pressure test [5]: 100%

C[C@]12N[C@H](Cc3ccccc31)c1ccccc12 [MK-801, MK-801 (Dizocilpine), reference compound]
Effect on recognition memory, 0-3 minute time range ([3]; MK-801 0.1 mg/kg): strong memory deficit
Effect on recognition memory, 0-5 minute time range ([3]; MK-801 0.1 mg/kg): strong memory deficit
Recognition Index, Mean (0 to 3 minute time bin) ([3]; Vehicle + MK-801 0.1 mg/kg IP, Vehicle + Saline control 73.78): 56.92%

CN1CC[C@]23c4c5ccc(O)c4O[C@H]2[C@@H](O)C=C[C@H]3[C@H]1C5 [Morphine, reference compound]
% of activity vs. vehicle, healthy rats paw pressure test [6]: 69%
% of activity vs. vehicle, healthy rats tail flick test [7]: 66%
% of activity vs. vehicle, Bennett model paw pressure test [8]: 191%
% of activity vs. vehicle, formalin test score (early phase) [9]: 57%
% of activity vs. vehicle, formalin test score (late phase) [9]: 38%
% of activity vs. vehicle, Brennan model electronic Von Frey test [10]: 88%
